Source: PubChem BioAssay (NCI)
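Values below derive from 48-hour exposures of cells grown in 96-well plates, with endpoints linearly interpolated between the two concentrations bracketing the appropriate inhibition level. At the GI50, growth is halved. The concentration for full growth arrest is given as TGI.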

Test system: M14 melanoma
Experiment: NCI anticancer screen, dose series, 48 h

SMILES	GI50	TGI [µM]
COc1ccc2c(Oc3ccc(NC(=O)c4c(C)n(CC(C)(C)O)n(-c5ccccc5)c4=O)nc3)ccnc2c1	6.29 µM	> 100
CC1C(=O)OC2CC[N+]3([O-])CC=C(COC(=O)C(C)(O)C1(C)O)C23 (centres undefined)		> 100
O=C(OCc1ccc2c(Cl)cc(Cl)c(O)c2n1)N1CCN(C(=O)c2cc3cc(F)ccc3[nH]2)CC1	0.675 µM	> 100
COc1ccc(Cc2cnc(NC(=O)c3ccc4c(c3)OCCO4)s2)cc1	0.0228 µM	22.4
COCOc1ccc(C2(O)Oc3cc(OCOC)ccc3C2C)c(O)c1 (centres undefined)		30.4
C[C@H]1CCC/C=C/[C@@H]2C[C@H](O)C[C@H]2[C@H](O)[C@@H](SCC(O)CO)CC(=O)O1 (some centres undefined)	12.4 µM	> 100
C=CCN1CC2CON(C(=O)C(OC)(c3ccccc3)C(F)(F)F)C2C1C(C)C (centres undefined)	30.3 µg/mL	
CC[C@@]1(O)C(=O)OCc2c1cc1n(c2=O)Cc2c-1nc1cc(F)c(C)c3c1c2[C@@H](N)CC3	< 0.01 µM	0.111
Nc1ccc2nc3n(c2c1)C(=O)c1ccccc1-3		> 100
Cn1cc(-c2ccc(-c3cncc(Cl)c3N3CCC4(CCNC4=O)CC3)cc2)cn1	76 µM	> 100
CC/C=C/C/C=C/C/C=C/C/C=C/C/C=C/C/C=C/CCC(=O)Nc1ccn([C@@H]2O[C@H](CO)[C@@H](O)C2(F)F)c(=O)n1	0.0303 µM	0.212
C/C(=N\NC(=S)N1CC2CCC(CC2)C1)c1ccccn1	0.0431 µM	1.21
O=C(NCc1ccc(S(=O)(=O)c2cc(F)cc(F)c2)cc1)c1ccc2nccn2c1	< 0.0108 µM	> 100
NC(=S)N/N=C/c1cc(-c2cccc(N)c2)ccn1	1.49 µM	4.21
Cc1nn(C(=O)c2ccc(Cl)cc2)c2c1C(c1ccc(O)cc1)SC(N)=N2 (centres undefined)		> 10

Test system: EKVX NSCLC
Experiment: NCI anticancer screen, dose series, 48 h

SMILES	GI50	TGI
COc1ccc2c(Oc3ccc(NC(=O)c4c(C)n(CC(C)(C)O)n(-c5ccccc5)c4=O)nc3)ccnc2c1	23.3 µM	> 80.3 µM
CC1C(=O)OC2CC[N+]3([O-])CC=C(COC(=O)C(C)(O)C1(C)O)C23 (centres undefined)		> 100 µM
O=C(OCc1ccc2c(Cl)cc(Cl)c(O)c2n1)N1CCN(C(=O)c2cc3cc(F)ccc3[nH]2)CC1	> 74.9 µM	> 100 µM
COc1ccc(Cc2cnc(NC(=O)c3ccc4c(c3)OCCO4)s2)cc1	0.0596 µM	> 100 µM
COCOc1ccc(C2(O)Oc3cc(OCOC)ccc3C2C)c(O)c1 (centres undefined)		28.2 µM
C[C@H]1CCC/C=C/[C@@H]2C[C@H](O)C[C@H]2[C@H](O)[C@@H](SCC(O)CO)CC(=O)O1 (some centres undefined)	27.7 µM	> 100 µM
C=CCN1CC2CON(C(=O)C(OC)(c3ccccc3)C(F)(F)F)C2C1C(C)C (centres undefined)	33.6 µg/mL	99.1 µg/mL
CC[C@@]1(O)C(=O)OCc2c1cc1n(c2=O)Cc2c-1nc1cc(F)c(C)c3c1c2[C@@H](N)CC3	0.0377 µM	> 100 µM
Nc1ccc2nc3n(c2c1)C(=O)c1ccccc1-3		> 100 µM
Cn1cc(-c2ccc(-c3cncc(Cl)c3N3CCC4(CCNC4=O)CC3)cc2)cn1	51.9 µM	> 100 µM
CC/C=C/C/C=C/C/C=C/C/C=C/C/C=C/C/C=C/CCC(=O)Nc1ccn([C@@H]2O[C@H](CO)[C@@H](O)C2(F)F)c(=O)n1	6.14 µM	> 58.9 µM
C/C(=N\NC(=S)N1CC2CCC(CC2)C1)c1ccccn1	0.0322 µM	1.16 µM
O=C(NCc1ccc(S(=O)(=O)c2cc(F)cc(F)c2)cc1)c1ccc2nccn2c1	23.3 µM	> 100 µM
NC(=S)N/N=C/c1cc(-c2cccc(N)c2)ccn1	2.6 µM	> 100 µM
Cc1nn(C(=O)c2ccc(Cl)cc2)c2c1C(c1ccc(O)cc1)SC(N)=N2 (centres undefined)		> 10 µM

Test system: NCI/ADR-RES ovarian
Experiment: NCI anticancer screen, dose series, 48 h

SMILES	GI50	TGI [µM]
COc1ccc2c(Oc3ccc(NC(=O)c4c(C)n(CC(C)(C)O)n(-c5ccccc5)c4=O)nc3)ccnc2c1	20.5 µM	> 100
CC1C(=O)OC2CC[N+]3([O-])CC=C(COC(=O)C(C)(O)C1(C)O)C23 (centres undefined)		> 100
O=C(OCc1ccc2c(Cl)cc(Cl)c(O)c2n1)N1CCN(C(=O)c2cc3cc(F)ccc3[nH]2)CC1	0.331 µM	
COc1ccc(Cc2cnc(NC(=O)c3ccc4c(c3)OCCO4)s2)cc1	0.024 µM	> 100
COCOc1ccc(C2(O)Oc3cc(OCOC)ccc3C2C)c(O)c1 (centres undefined)		30.9
C[C@H]1CCC/C=C/[C@@H]2C[C@H](O)C[C@H]2[C@H](O)[C@@H](SCC(O)CO)CC(=O)O1 (some centres undefined)	> 100 µM	> 100
C=CCN1CC2CON(C(=O)C(OC)(c3ccccc3)C(F)(F)F)C2C1C(C)C (centres undefined)	34.2 µg/mL	
CC[C@@]1(O)C(=O)OCc2c1cc1n(c2=O)Cc2c-1nc1cc(F)c(C)c3c1c2[C@@H](N)CC3	< 0.01 µM	> 100
Nc1ccc2nc3n(c2c1)C(=O)c1ccccc1-3		> 100
Cn1cc(-c2ccc(-c3cncc(Cl)c3N3CCC4(CCNC4=O)CC3)cc2)cn1	45.3 µM	> 100
CC/C=C/C/C=C/C/C=C/C/C=C/C/C=C/C/C=C/CCC(=O)Nc1ccn([C@@H]2O[C@H](CO)[C@@H](O)C2(F)F)c(=O)n1	0.0386 µM	16.9
C/C(=N\NC(=S)N1CC2CCC(CC2)C1)c1ccccn1	< 0.0177 µM	2.43
O=C(NCc1ccc(S(=O)(=O)c2cc(F)cc(F)c2)cc1)c1ccc2nccn2c1	5.08 µM	> 100
NC(=S)N/N=C/c1cc(-c2cccc(N)c2)ccn1	2.68 µM	> 100
Cc1nn(C(=O)c2ccc(Cl)cc2)c2c1C(c1ccc(O)cc1)SC(N)=N2 (centres undefined)		> 10

Test system: CCRF-CEM leukemia
Experiment: NCI anticancer screen, dose series, 48 h

SMILES	GI50	TGI
COc1ccc2c(Oc3ccc(NC(=O)c4c(C)n(CC(C)(C)O)n(-c5ccccc5)c4=O)nc3)ccnc2c1	18.2 µM	> 100 µM
CC1C(=O)OC2CC[N+]3([O-])CC=C(COC(=O)C(C)(O)C1(C)O)C23 (centres undefined)		> 100 µM
O=C(OCc1ccc2c(Cl)cc(Cl)c(O)c2n1)N1CCN(C(=O)c2cc3cc(F)ccc3[nH]2)CC1	0.876 µM	> 100 µM
COc1ccc(Cc2cnc(NC(=O)c3ccc4c(c3)OCCO4)s2)cc1	0.0388 µM	> 100 µM
COCOc1ccc(C2(O)Oc3cc(OCOC)ccc3C2C)c(O)c1 (centres undefined)		53.7 µM
C[C@H]1CCC/C=C/[C@@H]2C[C@H](O)C[C@H]2[C@H](O)[C@@H](SCC(O)CO)CC(=O)O1 (some centres undefined)	34.1 µM	> 100 µM
C=CCN1CC2CON(C(=O)C(OC)(c3ccccc3)C(F)(F)F)C2C1C(C)C (centres undefined)	15.2 µg/mL	62 µg/mL
CC[C@@]1(O)C(=O)OCc2c1cc1n(c2=O)Cc2c-1nc1cc(F)c(C)c3c1c2[C@@H](N)CC3	< 0.01 µM	> 100 µM
Nc1ccc2nc3n(c2c1)C(=O)c1ccccc1-3		> 100 µM
Cn1cc(-c2ccc(-c3cncc(Cl)c3N3CCC4(CCNC4=O)CC3)cc2)cn1	44.5 µM	> 100 µM
CC/C=C/C/C=C/C/C=C/C/C=C/C/C=C/C/C=C/CCC(=O)Nc1ccn([C@@H]2O[C@H](CO)[C@@H](O)C2(F)F)c(=O)n1	0.0537 µM	15.1 µM
C/C(=N\NC(=S)N1CC2CCC(CC2)C1)c1ccccn1	0.0335 µM	
O=C(NCc1ccc(S(=O)(=O)c2cc(F)cc(F)c2)cc1)c1ccc2nccn2c1		> 100 µM
NC(=S)N/N=C/c1cc(-c2cccc(N)c2)ccn1	0.674 µM	> 36.1 µM
Cc1nn(C(=O)c2ccc(Cl)cc2)c2c1C(c1ccc(O)cc1)SC(N)=N2 (centres undefined)		> 10 µM

Test system: UACC-62 melanoma
Experiment: NCI anticancer screen, dose series, 48 h

SMILES	GI50	TGI [µM]
COc1ccc2c(Oc3ccc(NC(=O)c4c(C)n(CC(C)(C)O)n(-c5ccccc5)c4=O)nc3)ccnc2c1	6.14 µM	42.2
CC1C(=O)OC2CC[N+]3([O-])CC=C(COC(=O)C(C)(O)C1(C)O)C23 (centres undefined)		> 100
O=C(OCc1ccc2c(Cl)cc(Cl)c(O)c2n1)N1CCN(C(=O)c2cc3cc(F)ccc3[nH]2)CC1	1.28 µM	> 100
COc1ccc(Cc2cnc(NC(=O)c3ccc4c(c3)OCCO4)s2)cc1	0.0292 µM	40.6
COCOc1ccc(C2(O)Oc3cc(OCOC)ccc3C2C)c(O)c1 (centres undefined)		25.5
C[C@H]1CCC/C=C/[C@@H]2C[C@H](O)C[C@H]2[C@H](O)[C@@H](SCC(O)CO)CC(=O)O1 (some centres undefined)	16.3 µM	82.2
C=CCN1CC2CON(C(=O)C(OC)(c3ccccc3)C(F)(F)F)C2C1C(C)C (centres undefined)	45.1 µg/mL	
CC[C@@]1(O)C(=O)OCc2c1cc1n(c2=O)Cc2c-1nc1cc(F)c(C)c3c1c2[C@@H](N)CC3	< 0.01 µM	0.0208
Nc1ccc2nc3n(c2c1)C(=O)c1ccccc1-3		> 100
Cn1cc(-c2ccc(-c3cncc(Cl)c3N3CCC4(CCNC4=O)CC3)cc2)cn1	60.7 µM	> 100
CC/C=C/C/C=C/C/C=C/C/C=C/C/C=C/C/C=C/CCC(=O)Nc1ccn([C@@H]2O[C@H](CO)[C@@H](O)C2(F)F)c(=O)n1	0.0499 µM	11.9
C/C(=N\NC(=S)N1CC2CCC(CC2)C1)c1ccccn1	0.309 µM	3.3
O=C(NCc1ccc(S(=O)(=O)c2cc(F)cc(F)c2)cc1)c1ccc2nccn2c1	> 51 µM	> 100
NC(=S)N/N=C/c1cc(-c2cccc(N)c2)ccn1	1.38 µM	> 24.5
Cc1nn(C(=O)c2ccc(Cl)cc2)c2c1C(c1ccc(O)cc1)SC(N)=N2 (centres undefined)		> 10
